Assay results taken from paper PMC5503158 (Cancer research, 2017).

Target: Bax (Homo sapiens, UniProt Q07812)
Test: competition fluorescence polarization assay with fluorescent Bak BH3 peptide
Format: binding

Sequence of Bax (Q07812 whole entry): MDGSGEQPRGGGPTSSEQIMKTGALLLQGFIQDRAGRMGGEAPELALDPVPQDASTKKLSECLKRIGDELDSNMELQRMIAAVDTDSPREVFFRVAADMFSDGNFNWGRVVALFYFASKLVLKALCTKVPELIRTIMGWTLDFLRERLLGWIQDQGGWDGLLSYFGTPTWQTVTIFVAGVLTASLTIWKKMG

In the case of NCCOc1ccccc1C=C1c2ccccc2-c2ccc([N+](=O)[O-])cc21 [CYD-2-11], the Ki is reported as 34.1 ± 8.54 nM.
